According to patent US4946964A, “Photographic compounds” (Polaroid Corporation, priority 1987, dated 1990):

Assays:
[1] = release kinetics: t1/2 for cleavage with release of the PHOTO moiety in alkaline solution; assay type: physicochemical; conditions: 1×10^-4 molar, 30% acetonitrile/0.25N aqueous potassium hydroxide, 22°+0.1° C., 100 µM
Text: The rate of release of the PHOTO moiety is dependent upon a number of factors. […] The release rate is also dependent upon the hydroxyl ion concentration of the alkaline medium. […] The rate of release is also temperature dependent, that is, the rate increases as the temperature at which processing of the film unit is effected increases. Thus, where PHOTO is a photographic reagent residue for example, the compounds which are utilized according to the invention can provide more uniform sensitometry for the film units of the invention over a wide temperature range of processing. In other words, the sensitometry of such film units can be less temperature dependent than would otherwise be the case.
The release kinetics of the compounds of the invention vary over a wide range. The t1/2 times in solution, i.e., the time required for one-half of the material to undergo cleavage with release of the PHOTO moiety, for some of the compounds illustrated above are shown in Table I. The values were obtained using 1×10^-4 molar concentrations in 30% acetonitrile/0.25N aqueous potassium hydroxide solution at a temperature of 22°+0.1° C.

[2] = Arrhenius activation energy (Ea) of release of the PHOTO moiety; assay type: physicochemical; conditions: log of observed rate constant vs 1/T (° K.)
Procedure: The rate at which the release reaction increases with temperature is a function of the activation energy. For example, for an increase in temperature from 20° C. to 30° C., it hs been calculated that the reaction rate will increase by a factor of 2 when Ea is 12.2, by a factor of about 3 when Ea is 19.3, by a factor of about 4 when Ea is 24.4 and by a factor of about 5 when Ea is 28.3. […] Typically, for such release reactions with other compounds, when the room temperature release rate is relatively fast, the activation energy tends to be about 10. Accordingly, it is possible to select, according to the invention, for a particular photographic system a compound which has a desired release rate at room temperature, a much slower release rate at lower temperatures and a much higher release rate at higher temperatures.
The Arrhenius activation energy (Ea) was calculated by plotting the log of the observed rate constant vs 1/T (° K.) for each compound.

Structure (SMILES) | t1/2 [1] | Arrhenius activation energy (Ea) [2] | t1/2 ([1]; syn isomer)
ON=C(CSc1nnnn1-c1ccc(O)cc1)CSc1nnnn1-c1ccc(O)cc1 [Compound I] | 51.1 s | 21.8 kcal/mol | –
ON=C(CSc1nnnn1-c1ccccc1)CSc1nnnn1-c1ccccc1 [III] | 8.9 s | – | –
CC(CSc1nnnn1-c1ccccc1)=NO [IX] | 22.5 s | 26.5 kcal/mol | –
ON=CCSc1nnnn1-c1ccccc1 [VIII] | 49.1 s | – | 1020.0 s
ON=C(CSc1nnnn1-c1ccccc1)c1ccccc1 [VII] | 4 to 6 s | – | –
CC(CSc1nnnn1-c1ccc(C(C)=NO)cc1)=NO [VI] | 28.9 s | – | –
CC(CSc1nnnn1-c1ccc(O)cc1)=NO [V] | 40.5 s | – | –
NC(CSc1nnnn1-c1ccccc1)=NO [XIII] | 546.0 s | – | –
Cc1ccc(S(=O)(=O)NN=C(CSc2nnnn2-c2ccccc2)c2ccccc2)cc1 [XII] | 165.0 s | – | –
CS(=O)(=O)Nc1ccc(C(CSc2nnnn2-c2ccccc2)=NO)cc1 [XI] | 7.6 s | – | –
COc1ccc(C(CSc2nnnn2-c2ccccc2)=NO)cc1 [X] | 4.3 s | 21.9 kcal/mol | –
